In patent US20180153826A1, “MATERIALS AND METHODS FOR THE TREATMENT OF CYSTIC FIBROSIS” (UNIVERSITY OF FLORIDA RESEARCH FOUNDATION, INC., priority 2015, published 2018):

System: ENaC
Experiment: ENaC activity as amiloride-sensitive bumetanide-insensitive Isc, weanling distal colon
Design: species or system rat
Settings: 10 μM; 2-3 week old rat distal colon
Experimental: FIG. 17. The inhibitory effect of […] on ENaC was examined electrophysiologically by measuring amiloride-sensitive short-circuit current responses in the presence or absence of […]. Weanling infant distal colonic mucosa, which expresses highest activity of ENaC, is employed and mounted in Ussing chamber. FIGS. 19A-19C. […] Here, the activity of ENaC is measured as amiloride-sensitive bumetanide-insensitive Isc. […] FIGS. 20A-20C. […] The activity of ENaC was measured as amiloride-sensitive bumetanide-insensitive Isc. […] Secretory Cl current is mediated by apical CFTR. This Cl secretory Isc is sensitive to bumetanide, applied to the basolateral side of the epithelium. There, bumetanide inhibits Cl entry from blood into the cell; thus, in the presence of bumetanide, the secretory Cl current is eliminated. Absorptive Na current is mediated by apically located epithelial Na channel (ENaC). This latter current is particularly high in this weanling age and is sensitive to amiloride, when it is applied luminally.

Q: For `COc1cccc([C@@H](C)NCCCc2ccccc2Cl)c1.Cl` [R568, 2-Chloro-N-[(1R)-1-(3-methoxyphenyl)ethyl]-benzenepropanamine hydrochloride], which “bumetanide-insensitive amiloride-inhibitable ENaC-mediated basal Isc” value is on record?
A: Its value is “inhibited”.
